Laboratory results as given in patent publication US20170107235A1, “PYRROLOBENZ[…] FOR TREATING LYMPHOMA” (ADC PRODUCTS (UK) LIMITED, priority 2014, published 2017).
Values joined by “and” are separate entries in the source; they are usually repeats but may differ in a detail not shown here. Equal values may be shown once.

System: dogs with spontaneous malignancies (lymphoma)
Experiment: Phase Ia clinical trial of SG2000 in dogs with spontaneous malignancies (lymphoma patients)
Format: in vivo
Parameters: key to Response during first cycle / Response to SG2000: Complete response (CR) is defined as the disappearance of all target lesions; Partial response (PR) is defined as a >30% decrease in the sum of the longest dimensions of the target lesions; Progressive disease (PD) is defined as a >20% increase in the sum of the longest dimensions of the target lesions; Stable Disease (SD) is defined as neither sufficient shrinkage to qualify for PR nor sufficient increase to qualify for PD
Experimental: A Phase Ia clinical trial in dogs with spontaneous malignancies was undertaken at the Royal Veterinary College, University of London, UK.
was supplied in 5 mL vials, wherein each mL contains 10 micrograms of SG2000 and 47.1 mg of dimethylacetamide. For doses below 100 microgram, the required volume of SG2000 was diluted to 10 ml with normal saline (0.9% sodium chloride) prior to administration. If the total dose exceeds 100 micrograms, the supplied solution was used without prior dilution with normal saline.
SG2000 was administered as a slow intravenous infusion into a peripheral vein. The drug was be administered slowly IV over 20 minutes via a peripheral vein catheter. If the drug has been diluted to a total volume of 10 ml, this will mean injecting 0.5 ml per minute.
The following concomitant/supportive medications permitted during the trial were:
The following definitions are used in reporting the results:
Complete response (CR) is defined as the disappearance of all target lesions.
Partial response (PR) is defined as a >30% decrease in the sum of the longest dimensions of the target lesions, taking as a reference the baseline sum longest dimensions.
Progressive disease (PD) is defined as a >20% increase in the sum of the longest dimensions of the target lesions, taking as a reference the smallest sum of the longest dimensions recorded since the treatment started, or the appearance of 1 or more new lesions.
Stable Disease (SD) is defined as neither sufficient shrinkage to qualify for PR nor sufficient increase to qualify for PD, taking as a reference the smallest sum of the longest dimensions since the treatment started.
Objective Response Rate (ORR) is defined as the number of patients with confirmed complete or partial responses, expressed as a percentage of all patients treated with SG2000
Time to Progression (TTP) is defined as the period of time from first date of treatment to the date that the patient is withdrawn because of clinical or imaging-based progressive disease, or death from any cause (including euthanasia).
“Duration of Response” is defined for patients with an objective response only.
This patient, diagnosed with multicentric B-cell high grade lymphoma, had been previously treated with 5 protocols. This patient was treated for a first cycle (3 weeks) with IV 1.75 μg/kg SG2000 solution with a single weekly dose. […] The second cycle of treatment followed with IV 2.00 μg/kg SG2000 with a single weekly dose. The third cycle of weekly dosing was begun after a single week break, with doses of 2.00 μg/kg SG2000, 1.75 μg/kg SG2000 and 2.00 μg/kg SG2000.
Patients 2 to 9 were treated as follows, with the stated amount of SG2000 (μg/kg), with a 3 weekly cycle of weekly treatments, and a single break week between cycles.
Patients 2, 4-5 were diagnosed with multicentric B-cell high grade lymphoma, Patients 3, 8 and 9 were diagnosed with multicentric B-cell intermediate grade lymphoma and Patient 6 was diagnosed with multicentric T-cell high grade lymphoma. Patient 7 was diagnosed with multicentric and mediastinal high grade lymphoma, which was suspected to be to be T-cell lymphoma.

[1] = Patient 1, dog, multicentric B-cell high grade lymphoma
[2] = Patient 1, dog, multicentric B-cell high grade lymphoma, IV 1.75-2.00 μg/kg weekly, 3 cycles
[3] = dogs with multicentric lymphoma, Patients 2 to 9, IV 1.5-2 μg/kg weekly

C=C1C[C@H]2C=Nc3cc(OCCCOc4cc5c(cc4OC)C(=O)N4CC(=C)C[C@H]4C=N5)c(OC)cc3C(=O)N2C1 [SG2000]
Progression free interval with treatment [1]: 111 days
Survival time since the start of the SG2000 trial [1]: 126 days
Patient response at the end of the planned 3 cycles [2]: PD (Progressive disease (PD) is defined as a >20% increase in the sum of the longest dimensions of the target lesions)
Toxicity at the end of the planned 3 cycles [2]: grade 4 anaemia
Disease course in the planned three week break after first cycle (Patient 1, dog, multicentric B-cell high grade lymphoma, after first cycle IV 1.75 μg/kg weekly): the disease progressed
Response during first cycle (Patient 1, dog, multicentric B-cell high grade lymphoma, first cycle (3 weeks) IV 1.75 μg/kg single weekly dose): SD
Survival time from diagnosis (Patient 1, dog, multicentric B-cell high grade lymphoma, previously treated with 5 protocols): 408 days
Progression free interval [3]: 10 d (2×) and 56 d and 54 d and 7 d and 158 d and 43 d
Survival time from SG2000 start [3]: 24 days and 74 days and 16 days and 95 days and 8 days and 195 days and 49 days
Survival time from diagnosis [3]: 31 days and 186 days and 252 days and 336 days and 141 days and 811 days and 138 days
Response to SG2000 (dogs with multicentric lymphoma, Patients 2 to 9, IV 1.5-2 μg/kg weekly, 3 weekly cycles): PD (Progressive disease (PD) is defined as a >20% increase in the sum of the longest dimensions of the target lesions) (3×) and SD (2×) and PR (Partial response (PR) is defined as a >30% decrease in the sum of the longest dimensions of the target lesions) (2×) and CR
